Data: article PMC6017250, “Novel Inhibitor Discovery of Staphylococcus aureus Sortase B and the Mechanism Confirmation via Molecular Modeling” (Molecules : A Journal of Synthetic Chemistry and Natural …, 2018)

Legend:
Format in all cases: binding
[1] = biological target: T1, Sortase B (SrtBΔ30, WT) (Staphylococcus aureus, UniProt Q2FZE3); assay: fluorescence spectroscopy quenching (association constant KA); also FRET peptide-cleavage inhibition of the purified enzyme, IC50 […]
T1 construct: gene srtB; SrtBΔ30

[2] = biological target: T2, Sortase B (SrtBΔ30) (Staphylococcus aureus, UniProt Q2FZE3, I182A); assay: fluorescence spectroscopy quenching (association constant KA)
T2 construct: gene srtB; SrtBΔ30
T2 sequence (Q2FZE3 31-244 I182A): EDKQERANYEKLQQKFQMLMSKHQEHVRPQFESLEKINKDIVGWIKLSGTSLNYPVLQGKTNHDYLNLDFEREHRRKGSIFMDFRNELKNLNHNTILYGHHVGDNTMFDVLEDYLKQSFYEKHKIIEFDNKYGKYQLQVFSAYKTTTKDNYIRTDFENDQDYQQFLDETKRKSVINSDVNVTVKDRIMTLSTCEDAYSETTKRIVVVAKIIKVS
From the text: (§1) fluorescence spectroscopy quenching (association constant KA) on Sortase B (SrtBΔ30) | the binding constants (KA) of the ligand with the mutant proteins were lower

[3] = biological target: T3, Sortase B (SrtBΔ30) (Staphylococcus aureus, UniProt Q2FZE3, R115A); assay: as above
T3 construct: gene srtB; SrtBΔ30
T3 sequence (Q2FZE3 31-244 R115A): T2 sequence (Q2FZE3 31-244 I182A)
From the text: as §1

[4] = biological target: T4, Sortase B (SrtBΔ30) (Staphylococcus aureus, UniProt Q2FZE3, N116A); assay: as above
T4 construct: gene srtB; SrtBΔ30
T4 sequence (Q2FZE3 31-244 N116A): T2 sequence (Q2FZE3 31-244 I182A)
From the text: as §1

## c1c2c(cc3c1OCO3)-c1cc3ccc4c(c3c[n+]1CC2)OCO4 [coptisine]
[1]
  Kd: 7.35 µM
[2]
  Kd: 12.8 µM
[3]
  Kd: 12 µM
[4]
  Kd: 10.9 µM
